Paper PMC11542720, “Modelling of chromatographic and electrophoretic behaviour of imidazoline and alpha adrenergic receptors ligands under different acid-base conditions” (ADMET & DMPK, 2024)
Where “and” joins values, the source holds several entries; their conditions need not be identical. Equal entries are not always repeated. Structures can show the parent of a compound that is named as a salt. Where two headings read alike, the source gives them in different places.

Assays:
[1] = Capillary electrophoresis, effective electrophoretic mobility (acetone as EOF marker); format: physicochemical; settings: for µeff4.4 / μeff4.4 (effective electrophoretic mobility): pH 4.4; for µeff4.4 / µeff7.4 / µeff9.1: I = 25 mmol/L, 11 kV, 25 °C, three replicates; for µeff7.4 / μeff7.4 (effective electrophoretic mobility, text): pH 7.4; for µeff9.1 / μeff9.1 (effective electrophoretic mobility): pH 9.1
Method: All experiments were performed using the SpectraPhoresis 500-capillary electrophoresis system (Spectra Physics Analytical, USA) with UV detector. Data were recorded and analyzed using ChromQuest software version 4.0 (Thermo Finnigan, USA).
The separations were performed with an uncoated fused capillary (total length 31.5 cm, 50 μm id, effective length 24 cm, Polymicro Technologies, USA) applying a voltage of 11 kV and at 25 °C. The samples were injected hydrodynamically and detection was performed in the 200-280 nm range. The new capillary was rinsed stepwise with 0.1 M NaOH (15 min), water (10 min) and a running buffer (10 min). Finally, a 10 min high voltage was applied through the background electrolyte-filled capillary to equalize the inner surface, stabilize the electroosmotic flow and ensure good reproducibility of injections from run to run. […] Between runs, the capillary was rinsed with the background electrolyte for 1 minute.
where Lt is the total length of the capillary (cm), Leff is the effective length of the capillary (cm), U is the applied voltage (V), tm is the migration time of the analyte (s) and teof is the migration time of the electroneutral EOF marker acetone (s). The calculated μeff values (μeff4.4, μeff7.4 and μeff9.1) were used as dependent variables in QSMR analysis.

[2] = RP-HPLC retention on XTerra RP18, methanol/buffer; extrapolated retention factor log kw and slope S; format: physicochemical; settings: for log kw: intercept, extrapolated to 100 % buffer, methanol/buffer, 25 °C; for S (slope): slope of log k vs methanol volume fraction
Method: All measurements were performed at 25°C with a constant flow rate of 0.8 mL min^-1 and UV detection in the range of 200-280 nm. The injection volume was 20 μL. […] The retention factor k was calculated for each mobile phase composition according to Equation (1):
where tr is the retention time of the tested compound and t0 is the dead volume measured with KNO3 as a non-retentive marker. The values corresponding to 100 % of the buffered eluent (log kw) were determined by extrapolation according to Equation (2):
where log kw is the intercept, S is the slope of the regression line, and φ is the volume fraction of the organic modifier in the mobile phase.
The retention behaviour in HPLC system was monitored by calculating extrapolated retention factors log kw corresponding to pure buffer as mobile phase.

[3] = cited from earlier work

SMILES	µeff4.4 [1]	µeff7.4 [1]	µeff9.1 [1]	log kw ([2]; pH 4.4)	S (slope) ([2]; pH 4.4)	log kw ([2]; pH 7.4)	S (slope) ([2]; pH 7.4)	log kw ([2]; pH 9.1)	S (slope) ([2]; pH 9.1)	μeff9.1 (effective electrophoretic mobility) [1]	pKa experimental ([3]; potentiometric, ref 2 (Supplement reference list))	log kw ([2]; pH 4.4, listed as carvedilol)	μeff4.4 (effective electrophoretic mobility) [1]	μeff7.4 (effective electrophoretic mobility, text) [1]	μeff7.4 (effective electrophoretic mobility, text) ([1]; listed as clopamide)	pKa experimental ([3]; HPLC, ref 5 (Supplement reference list))	pKa experimental ([3]; voltammetric, ref 6 (Supplement reference list))	pKa experimental ([3]; HPLC, ref 7 (Supplement reference list))
N=C(N)NC(=O)c1nc(Cl)c(N)nc1N [Amiloride, Amiloride hydrochloride]	25.939 ± 0.080 10^-5 cm^2 V^-1 s^-1	21.786 ± 0.082 10^-5 cm^2 V^-1 s^-1	6.416 ± 0.022 10^-5 cm^2 V^-1 s^-1	1.11 ± 0.04	-3.31 ± 0.09	1.05 ± 0.04	-3.23 ± 0.12	0.98 ± 0.04	-2.74 ± 0.11									
Brc1c(NC2=NCCN2)ccc2nccnc12 [Brimonidine, brimonidine hydrochloride]	23.357 ± 0.043 10^-5 cm^2 V^-1 s^-1	13.247 ± 0.200 10^-5 cm^2 V^-1 s^-1	0.000 ± 0.000 10^-5 cm^2 V^-1 s^-1	0.99 ± 0.03	-4.78 ± 0.21	1.08 ± 0.03	-3.20 ± 0.12	1.26 ± 0.07	-3.23 ± 0.19	zero	7.50							
COc1ccccc1OCCNCC(O)COc1cccc2[nH]c3ccccc3c12 (stereo not drawn) [Carvedilol, carvedilol]	18.061 ± 0.029 10^-5 cm^2 V^-1 s^-1	13.057 ± 0.052 10^-5 cm^2 V^-1 s^-1	1.693 ± 0.071 10^-5 cm^2 V^-1 s^-1	3.75 ± 0.04	-5.84 ± 0.07	4.15 ± 0.08	-5.44 ± 0.13	4.21 ± 0.10	-5.56 ± 0.18			3.75						
Clc1cccc(Cl)c1N=C1NCCN1 [Clonidine, Clonidine hydrochloride]	25.952 ± 0.084 10^-5 cm^2 V^-1 s^-1	19.607 ± 0.132 10^-5 cm^2 V^-1 s^-1	2.575 ± 0.060 10^-5 cm^2 V^-1 s^-1	0.82 ± 0.02	-2.74 ± 0.05	0.98 ± 0.01	-1.82 ± 0.02	1.47 ± 0.01	-2.71 ± 0.03									
C[C@@H]1CCC[C@H](C)N1NC(=O)c1ccc(Cl)c(S(N)(=O)=O)c1 [Clopamide, clopamide]	0.000 ± 0.000 10^-5 cm^2 V^-1 s^-1	0.000 ± 0.000 10^-5 cm^2 V^-1 s^-1	-9.640 ± 0.053 10^-5 cm^2 V^-1 s^-1	2.00 ± 0.02	-3.61 ± 0.04	1.99 ± 0.03	-3.59 ± 0.08	1.87 ± 0.01	-3.34 ± 0.02	negative values of effective mobility			0 10^-5 cm^2 / V s and 0.000 ± 0.000 10^-5 cm^2 / V s	zero	0 10^-5 cm^2 / V s			
CN1CCN(C2=Nc3cc(Cl)ccc3Nc3ccccc32)CC1 [Clozapine, clozapine]	22.697 ± 0.017 10^-5 cm^2 V^-1 s^-1	9.204 ± 0.061 10^-5 cm^2 V^-1 s^-1	0.000 ± 0.000 10^-5 cm^2 V^-1 s^-1	2.94 ± 0.03	-4.69 ± 0.06	3.85 ± 0.05	-4.88 ± 0.08	3.95 ± 0.08	-5.04 ± 0.15	zero						7.719 ± 0.015		
COc1cc2nc(N3CCN(C(=O)C4COc5ccccc5O4)CC3)nc(N)c2cc1OC (stereo not drawn) [Doxazosin, doxazosin mesilat]	15.795 ± 0.013 10^-5 cm^2 V^-1 s^-1	3.137 ± 0.075 10^-5 cm^2 V^-1 s^-1	0.000 ± 0.000 10^-5 cm^2 V^-1 s^-1	3.42 ± 0.07	-5.56 ± 0.14	3.67 ± 0.11	-5.05 ± 0.19	3.60 ± 0.11	-4.95 ± 0.20	zero							6.89 ± 0.57	
CCC1(C2=NCCN2)Cc2ccccc2O1 (stereo not drawn) [Efaroxan, efaroxan hydrochloride]	24.099 ± 0.035 10^-5 cm^2 V^-1 s^-1	22.704 ± 0.075 10^-5 cm^2 V^-1 s^-1	16.361 ± 0.178 10^-5 cm^2 V^-1 s^-1	1.31 ± 0.02	-3.20 ± 0.04	1.33± 0.03	-3.10 ± 0.14	1.85 ± 0.01	-3.38 ± 0.03									10.02
CN[C@@H](C)[C@H](O)c1ccccc1 [Ephedrine, ephedrine hydrochloride]	25.942 ± 0.032 10^-5 cm^2 V^-1 s^-1	23.199 ± 0.103 10^-5 cm^2 V^-1 s^-1	18.047 ± 0.070 10^-5 cm^2 V^-1 s^-1	0.56 ± 0.02	-2.41 ± 0.08	0.57± 0.02	-2.49 ± 0.09	1.01 ± 0.02	-2.52 ± 0.05									
N=C(N)NC(=O)Cc1c(Cl)cccc1Cl [Guanfacine, guanfacine hydrochloride]	24.242± 0.002 10^-5 cm^2 V^-1 s^-1	5.083 ± 0.025 10^-5 cm^2 V^-1 s^-1	0.000 ± 0.000 10^-5 cm^2 V^-1 s^-1	1.73 ± 0.01	-3.47 ± 0.03	1.92 ± 0.12	-3.21 ± 0.03	2.00 ± 0.00	-3.35 ± 0.01	zero				5.083 ± 0.025 10^-5 cm^2 / V s				
CC1Cc2ccccc2N1NC(=O)c1ccc(Cl)c(S(N)(=O)=O)c1 (stereo not drawn) [Indapamide, indapamide]	0.000 ± 0.000 10^-5 cm^2 V^-1 s^-1	0.000 ± 0.000 10^-5 cm^2 V^-1 s^-1	-10.382 ± 0.053 10^-5 cm^2 V^-1 s^-1	2.69 ± 0.02	-4.16 ± 0.06	2.55 ± 0.02	-4.19 ± 0.04	2.35 ± 0.03	-3.78 ± 0.06	negative values of effective mobility			0 10^-5 cm^2 / V s and 0.000 ± 0.000 10^-5 cm^2 / V s					
Cc1cc2c(s1)Nc1ccccc1N=C2N1CCN(C)CC1 [Olanzapine, olanzapine]	33.632 ± 0.036 10^-5 cm^2 V^-1 s^-1	10.679 ± 0.039 10^-5 cm^2 V^-1 s^-1	1.241 ± 0.029 10^-5 cm^2 V^-1 s^-1	1.64 ± 0.04	-3.37 ± 0.11	3.23 ± 0.07	-4.37 ± 0.12	3.28 ± 0.08	-4.46 ± 0.14				33.632 ± 0.036 10^-5 cm^2 / V s					
CN[C@@H](C)[C@@H](O)c1ccccc1 [Pseudoephedrine, pseudoephedrine hydrochloride]	26.633 ± 0.043 10^-5 cm^2 V^-1 s^-1	23.691 ± 0,051 10^-5 cm^2 V^-1 s^-1	9.299 ± 0.058 10^-5 cm^2 V^-1 s^-1	0.60 ± 0.03	-2.60 ± 0.10	0.61 ± 0.02	-2.67 ± 0.12	1.10 ± 0.02	-2.72 ± 0.07									
C1COC(NC(C2CC2)C2CC2)=N1 [Rilmenidine, rilmenidine hemifumarate]	25.350 ± 0.121 10^-5 cm^2 V^-1 s^-1	22.551 ± 0.029 10^-5 cm^2 V^-1 s^-1	14.065 ± 0.214 10^-5 cm^2 V^-1 s^-1	0.92 ± 0.03	-2.88 ± 0.09	0.90 ± 0.03	-2.35 ± 0.11	1.48 ± 0.02	-2.96 ± 0.06									
CCOc1ccccc1OCCN[C@H](C)Cc1ccc(OC)c(S(N)(=O)=O)c1 [Tamsulosin, tamsulosin hydrochloride]	17.310 ± 0.002 10^-5 cm^2 V^-1 s^-1	14.444 ± 0.058 10^-5 cm^2 V^-1 s^-1	2.472 ± 0.133 10^-5 cm^2 V^-1 s^-1	2.22 ± 0.05	-4.73 ± 0.13	2.75 ± 0.04	-4.51 ± 0.10	3.06 ± 0.09	-4.97 ± 0.20									
Clc1ccc2nsnc2c1NC1=NCCN1 [Tizanidine, tizanidine hydrochloride]	24.770 ± 0.035 10^-5 cm^2 V^-1 s^-1	12.077 ± 0.042 10^-5 cm^2 V^-1 s^-1	0.000 ± 0.000 10^-5 cm^2 V^-1 s^-1	0.74 ± 0.02	-2.65 ± 0.06	1.12 ± 0.01	-2.23 ± 0.03	1.34 ± 0.01	-2.63 ± 0.04	zero								
Cc1cc(C(C)(C)C)cc(C)c1CC1=NCCN1 [Xylometazoline, xylometazoline hydrochloride]	21.032 ± 0.019 10^-5 cm^2 V^-1 s^-1	19.943 ± 0.006 10^-5 cm^2 V^-1 s^-1	20.627 ± 0.015 10^-5 cm^2 V^-1 s^-1	2.61 ± 0.00	-4.22 ± 0.01	2.59 ± 0.02	-4.14 ± 0.04	2.79 ± 0.08	-4.17 ± 0.16									
